This assay concerns SMN protein. The experiment in a line: cellular SMN ELISA (SMN protein elevation). Format: cell-based. The settings on record: myoblast cell line from SMNdelta7 mouse model, 24 hours treatment; for SMN activity Fold: fold activation over DMSO control. The protocol:
A cellular SMN ELISA was used to measure the effects of low molecular weight compounds on SMN protein elevation. Cells from a myoblast cell line derived from the SMNdelta7 mouse model (kind gift from Steve Burden, NYU) were seeded into a 384-well plate at a density of 3000 cells/well and treated with compounds for 24 hours. ELISA capture plates were prepared by coating 384-well plates (Immulon 4HBX) with 0.5 ug/mL of anti-SMN mAb (BD Science, Catalog number 610647) at 4° C. overnight. The plates were washed 5 times with 110 uL of PBS-Tween (0.05% Tween-20, PBST), blocked with 100 uL of 1% BSA in PBST for 2 hours and washed (5 times) with 100 uL of PBST. After 24 hours of compound treatment cells were lysed in a modified RIPA-buffer, on ice for 1 hour. 20 uL of lysate and 20 uL of 1% BSA were then added to the ELISA capture plates and incubated at 4° C. overnight. Plates were washed (5 times) with PBST and then incubated with 1:100 dilution of primary rabbit anti-SMN polyclonal antibody (Santa cruz, Catalog number SC-15320) at room temperature for 1 hour and subsequently washed (5 times) with 110 uL of PBST. This was followed by addition of 1:100 Goat anti-Rabbit IgG-HRP linked (Cell Signaling, Catalog number 7074) secondary antibody for 1 hour. Plates were then washed with PBST and incubated with 40 uL TMB substrate (Cell Signaling, Catalog number 7004L) at room temperature for 1-10 minutes with shaking. The reaction was stopped by addition of 40 uL of stop solution (Cell signaling, Catalog number 7002L) and absorption was measured at 450 nm. Data was reported as fold activation over DMSO control, and EC50.
ELISA assay condition 1: compound concentration range 20 nM-10 uM; ELISA assay condition 2: compound concentration 100 pM-10 uM.

The mark [1] stands for this setting: ELISA condition 2: compound concentration 100 pM-10 uM.
The mark [2] stands for this setting: ELISA condition 1: compound concentration range 20 nM-10 uM.

The EC50 is the concentration giving half of the maximal effect. Lower therefore signals greater potency. For the compound `CN(c1ccc(-c2cc(-c3cnn4c3CCCC4)ccc2O)nn1)C1CC(C)(C)NC(C)(C)C1` [Example 32-2, 2-(6-(methyl(2,2,6,6-tetramethylpiperidin-4-yl)amino)pyridazin-3-yl)-4-(4,5,6,7-tetrahydropyrazolo[1,5-a]pyridin-3-yl)phenol], under setting [1], the midpoint of the response, the EC50, lay at 0.396 µM and the “SMN activity Fold” value was 2.49 Fold.

Regarding `Oc1cc(-n2cccn2)ccc1-c1ccc(NC2CNC2)nn1` [Example 18-3, 2-[6-(azetidin-3-ylamino)-pyridazin-3-yl]-5-pyrazol-1-yl-phenol], under setting [2], a half-maximal effect (EC50) was put at 0.66 µM and the “SMN activity Fold” value worked out at 1.95 Fold.

In the case of `CN(c1ccc(-c2c(O)cc(-c3cn[nH]c3)cc2F)nn1)C1CC(C)(C)NC(C)(C)C1` [Example 40-7, 3-fluoro-2-(6-(methyl(2,2,6,6-tetramethylpiperidin-4-yl)amino)pyridazin-3-yl)-5-(1H-pyrazol-4-yl)phenol], under setting [1], a half-maximal response (EC50) required 0.004 µM and the “SMN activity Fold” value worked out at 2.80 Fold.

For `CN(c1ccc(-c2cc(-c3c[nH]cn3)c(F)cc2O)nn1)C1CC(C)(C)NC(C)(C)C1` [Example 34-3, 5-fluoro-4-(1H-imidazol-4-yl)-2-(6-(methyl(2,2,6,6-tetramethylpiperidin-4-yl)amino)pyridazin-3-yl)phenol], under setting [1], the EC50 came to 0.027 µM and the “SMN activity Fold” value stood at 2.56 Fold.

As to `COc1cc(-c2ccc(-c3ccc(N(C)C4CC(C)(C)NC(C)(C)C4)nn3)c(O)c2)ccn1` [Example 41-8, 5-(2-methoxypyridin-4-yl)-2-(6-(methyl(2,2,6,6-tetramethylpiperidin-4-yl)amino)pyridazin-3-yl)phenol], under setting [1], the EC50 is 0.062 µM and the “SMN activity Fold” value was 3.18 Fold.

Regarding `CN(c1ccc(-c2cc3c(cc2O)-c2[nH]ncc2C3)nn1)C1CC(C)(C)NC(C)(C)C1` [Example 35-2, 6-(6-(methyl(2,2,6,6-tetramethylpiperidin-4-yl)amino)pyridazin-3-yl)-1,4-dihydroindeno[1,2-c]pyrazol-7-ol], under setting [1], the EC50 is 0.01 µM and the “SMN activity Fold” value was 2.84 Fold.

`CC1CC(Oc2ccc(-c3ccc(-n4cccn4)cc3O)nn2)CCN1` (single isomer, unassigned) [Example 17-6]: under setting [1], the midpoint of the response, the EC50, lay at 0.443 µM and the “SMN activity Fold” value came to 2.58 Fold.

Regarding `CN(c1ccc(-c2ccc(C3=CCNCC3)cc2O)nn1)C1CC(C)(C)NC(C)(C)C1` [Example 41-15, 2-(6-(methyl(2,2,6,6-tetramethylpiperidin-4-yl)amino)pyridazin-3-yl)-5-(1,2,3,6-tetrahydropyridin-4-yl)phenol], under setting [1], the EC50 amounted to 0.145 µM and the “SMN activity Fold” value came to 2.56 Fold.

Regarding `CN(c1ccc(-c2cc(-c3ccn[nH]3)ccc2O)nn1)C1CC(C)(C)NC(C)(C)C1` [Example 32-6, 2-(6-(methyl(2,2,6,6-tetramethylpiperidin-4-yl)amino)pyridazin-3-yl)-4-(1H-pyrazol-3-yl)phenol], under setting [1], the concentration for a half-maximal effect (EC50) was determined as 0.092 µM and the “SMN activity Fold” value was 2.69 Fold.

Turning to `CN(c1ccc(-c2ccc(-c3cnn(CCN4CCOCC4)c3)cc2O)nn1)C1CC(C)(C)NC(C)(C)C1` [Example 16-1, 2-(6-(methyl(2,2,6,6-tetramethylpiperidin-4-yl)amino)pyridazin-3-yl)-5-(1-(2-morpholino-ethyl)-1H-pyrazol-4-yl)phenol], under setting [1], a half-maximal response (EC50) required 0.077 µM and the “SMN activity Fold” value worked out at 2.66 Fold.

With `CN(c1ccc(-c2cc3ccc(CN4CCCCC4)cc3cc2O)nn1)C1CC(C)(C)NC(C)(C)C1` [Example 24-2, 3-(6-(methyl(2,2,6,6-tetramethylpiperidin-4-yl)amino)pyridazin-3-yl)-7-(piperidin-1-ylmethyl)naphthalen-2-ol], under setting [1], the midpoint of the response, the EC50, lay at 0.157 µM and the “SMN activity Fold” value is given as 2.33 Fold.

Regarding `Oc1cc(-n2cccn2)ccc1-c1ccc(N2C[C@H]3CNC[C@H]3C2)nn1` [Example 18-17, 2-(6-((3aR,6aS)-hexahydropyrrolo[3,4-c]pyrrol-2(1H)-yl)pyridazin-3-yl)-5-(1H-pyrazol-1-yl)phenol], under setting [1], the concentration for a half-maximal effect (EC50) came to 0.158 µM and the “SMN activity Fold” value was 2.85 Fold.

As for `CC1CN(c2ccc(-c3ccc(-n4cccn4)cc3O)nn2)CC(C)N1` (centres unmarked) [Example 18-4, 2-[6-(3,5-dimethyl-piperazin-1-yl)-pyridazin-3-yl]-5-pyrazol-1-yl-phenol], under setting [1], it took 0.388 µM to reach a half-maximal effect (EC50) and the “SMN activity Fold” value came to 2.84 Fold.

Consider `CN1CC=C(c2ccc(-c3cc4ccc(O)cc4cc3O)nn2)CC1` [Example 19-6, 3-(6-(1-methyl-1,2,3,6-tetrahydropyridin-4-yl)pyridazin-3-yl)naphthalene-2,7-diol], for which, under setting [1], the EC50 came out at 0.04 µM and the “SMN activity Fold” value was 2.33 Fold.

As for `CC1(C)C=C(c2ccc(-c3cc4ccc(O)cc4cc3O)nn2)CC(C)(C)N1` [Example 19-5, 3-(6-(2,2,6,6-tetramethyl-1,2,3,6-tetrahydropyridin-4-yl)pyridazin-3-yl)naphthalene-2,7-diol], under setting [1], the concentration giving a half-maximal response (EC50) was determined as 0.402 µM and the “SMN activity Fold” value amounted to 2.58 Fold.

`CN(c1ccc(-c2ccc3cnc(OCc4ccccc4)cc3c2)nn1)C1CC(C)(C)NC(C)(C)C1` [Example 39-1, 6-(3-(benzyloxy)isoquinolin-6-yl)-N-methyl-N-(2,2,6,6-tetramethylpiperidin-4-yl)pyridazin-3-amine]: under setting [1], the EC50 amounted to 1.03 µM and the “SMN activity Fold” value is listed as 2.65 Fold.

As for `CC1(C)CC(Oc2ccc(-c3ccc(-n4cccn4)cc3O)nn2)CCN1` (centres unmarked) [Example 31-1, 2-(6-((2,2-dimethylpiperidin-4-yl)oxy)pyridazin-3-yl)-5-(1H-pyrazol-1-yl)phenol], under setting [1], the midpoint of the response, the EC50, lay at 0.2 µM and the “SMN activity Fold” value amounted to 3.03 Fold.

As to `CN(c1ccc(-c2c(O)cc(-c3ccc(=O)n(C)c3)cc2F)nn1)C1CC(C)(C)NC(C)(C)C1` [Example 40-4, 5-(3-fluoro-5-hydroxy-4-(6-(methyl(2,2,6,6-tetramethylpiperidin-4-yl)amino)pyridazin-3-yl)phenyl)-1-methylpyridin-2(1H)-one], under setting [1], the 50% effective concentration (EC50) was determined as 0.015 µM and the “SMN activity Fold” value came to 2.14 Fold.

Turning to `CN(c1ccc(-c2ccc3cnccc3c2)nn1)C1CC(C)(C)NC(C)(C)C1` [Example 1-15, 6-(isoquinolin-6-yl)-N-methyl-N-(2,2,6,6-tetramethylpiperidin-4-yl)pyridazin-3-amine], under setting [1], the EC50 was found to be 0.197 µM and the “SMN activity Fold” value was 2.93 Fold.

As to `CC1(C)CC(Nc2ccc(-c3ccc4nonc4c3)nn2)CC(C)(C)N1` [Example 2-1, 6-(benzo[c][1,2,5]oxa-diazol-5-yl)-N-(2,2,6,6-tetramethyl-piperidin-4-yl)pyridazin-3-amine], under setting [2], the EC50 was 1.37 µM and the “SMN activity Fold” value was 2.68 Fold.

As for `CN(c1ccc(-c2ccc(-c3cnn(C)c3)cc2O)nn1)C1CC(C)(C)NC(C)(C)C1` [Example 16-2, 2-(6-(methyl(2,2,6,6-tetramethylpiperidin-4-yl)amino)pyridazin-3-yl)-5-(1-methyl-1H-pyrazol-4-yl)phenol], under setting [1], the EC50 turned out to be 0.015 µM and the “SMN activity Fold” value is recorded as 3.21 Fold.

In the case of `CC1(C)CC(Cc2ccc(-c3ccc(-n4cccn4)cc3O)nn2)CC(C)(C)N1` [Example 21-2, 5-(1H-pyrazol-1-yl)-2-(6-((2,2,6,6-tetramethylpiperidin-4-yl)methyl)pyridazin-3-yl)phenol], under setting [1], the midpoint of the response, the EC50, lay at 0.206 µM and the “SMN activity Fold” value came out at 2.69 Fold.

As to `CN(c1ccc(-c2ccc3ccnc(OCc4ccccc4)c3c2)nn1)C1CC(C)(C)NC(C)(C)C1` [Example 39-2, 6-(1-(benzyloxy)isoquinolin-7-yl)-N-methyl-N-(2,2,6,6-tetramethylpiperidin-4-yl)pyridazin-3-amine], under setting [1], the EC50 was 0.408 µM and the “SMN activity Fold” value turned out to be 3.04 Fold.

As to `CC1(C)CC(N(CCO)c2ccc(-c3ccc(-n4cccn4)cc3O)nn2)CC(C)(C)N1` [Example 16-5, 2-{6-[(2-hydroxy-ethyl)-(2,2,6,6-tetramethyl-piperidin-4-yl)-amino]-pyridazin-3-yl}-5-pyrazol-1-yl-phenol], under setting [1], the midpoint of the response, the EC50, lay at 0.024 µM and the “SMN activity Fold” value is recorded as 2.41 Fold.

Regarding `Cc1nc(-c2ccc(-c3ccc(N(C)C4CC(C)(C)NC(C)(C)C4)nn3)c(O)c2)c[nH]1` [Example 42-9, 2-(6-(methyl(2,2,6,6-tetramethylpiperidin-4-yl)amino)pyridazin-3-yl)-5-(2-methyl-1H-imidazol-4-yl)phenol], under setting [1], the EC50 was 0.015 µM and the “SMN activity Fold” value came out at 2.85 Fold.

These data come from patent US10195196B2, “1,4-disubstituted pyridazine analogs there of and methods for treating SMN-deficiency-related conditions” (NOVARTIS AG, priority 2012, dated 2019).
